Test results published in patent US20240043448A1, “Small Molecule Inhibitors of KRAS G12C Mutant” (Merck Sharp & Dohme LLC, priority 2019, published 2024).
Read-outs that look alike come from different tables or passages of the source.

Tests used:
[1] = target: Biotinylated KRAS G12C protein (Homo sapiens (Human), UniProt P01116, C118S/C51S/C80L/G12C); assay: SOS-catalyzed nucleotide exchange assay (TR-FRET); format: biochemical; conditions: in vitro apparent potency; preincubation time of 60 minutes prior to addition of SOS
Procedure, shortened: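 Biotinylated KRAS G12C preloaded with Bodipy-GDP and Tb-streptavidin, then incubated with compound (10-point, 3-fold series) for 60 min at RT. Exchange started with SOS and GTP for 60 min. TR-FRET 520/495 ratio normalised to DMSO and saturating-inhibitor controls; four-parameter fit.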

phospho-ERK = assay: Cellular phospho-ERK assay; format: cell-based; conditions: NCI-H358 cells, 2 hour incubation, ratio of p-Erk vs total Erk, read-out: IC50 (nM) pERK (Cell)
Procedure, shortened: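 NCI-H358 cells seeded overnight, then exposed to compound dose-response titrations for 2 hours at 37° C. in RPMI. Lysates assayed by AlphaLISA SureFire Ultra multiplex for p-Erk and total Erk; ratio p-Erk/total Erk used as readout, IC50 from 4-parameter logistic fit.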

Row | Compound | IC50 [1] [nM] | IC50 (phospho-ERK) [nM] | IC50 (phospho-ERK; Homo sapiens, NCI-H358, 2 h) [nM]
1 | C=CC(=O)N1CCN(c2nc(=O)n3c4nc(c(F)cc24)-c2cccc4cnn(c24)CCCc2ccnc(C(C)C)c2-3)[C@@H](C)C1 (single isomer, unassigned) [Example 117] | 17 | 44 | 
2 | C=CC(=O)N1CCN(c2nc(=O)n3c4nc(c(F)cc24)-c2c(ccc(F)c2F)OCC(F)(F)CCc2ccnc(C(C)C)c2-3)CC1 [Example 65, 12,12,17,18,21-pentafluoro-6-(propan-2-yl)-2-[4-(prop-2-enoyl)piperazin-1-yl]-10,11,12,13-tetrahydro-4H-1,19-(ethanediylidene)pyrido[4,3-f]pyrimido[1,6-h][1,8,10] benzoxadiazacyclotri-decin-4-one] | 2.6 |  | 15
3 | C=CC(=O)N1CCN(c2nc(=O)n3c4nc(c(F)cc24)-c2c(F)cccc2CCOCCc2ccnc(C(C)C)c2-3)[C@H](C)C1 [Example 17b, 18,21-difluoro-2-[(2S)-2-methyl-4-(prop-2-enoyl)piperazin-1-yl]-6-(propan-2-yl)-10,11,13,14-tetrahydro-4H-1,19-ethenopyrido[3,4-e]pyrimido[6,1-c][9,2,4]benzoxadiazacyclotridecin-4-one] | 370 | 1180 | 
4 | C=CC(=O)N1CCN(c2nc(=O)n3c4nc(c(F)cc24)-c2c(F)cccc2CCOCCc2ccnc(C(C)C)c2-3)[C@@H](C)C1 [Example 17a, 18,21-difluoro-2-[(2S)-2-methyl-4-(prop-2-enoyl)piperazin-1-yl]-6-(propan-2-yl)-10,11,13,14-tetrahydro-4H-1,19-ethenopyrido[3,4-e]pyrimido[6,1-c][9,2,4]benzoxadiazacyclotridecin-4-one] | 11 | 66 | 
5 | C=CC(=O)N1CCN(c2nc(=O)n3c4nc(c(F)cc24)-c2c(F)cccc2OCCCCc2cnc(C(C)C)c-3c2)[C@H](C)C1 [Example 16b, 19,22-difluoro-2-[(2S)-2-methyl-4-(prop-2-enoyl)piperazin-1-yl]-7-(propan-2-yl)-11,12,13,14-tetrahydro-4H-1,20-(ethanediylidene)-6,10-(metheno)pyrimido[1,6-k][1,8,11,13]benzoxatriazacyclohexadecin-4-one] | 10 | 109 | 
6 | C=CC(=O)N1CCN(c2nc(=O)n3c4nc(c(F)cc24)-c2c(F)cccc2C(=O)NCCCc2ccnc(C(C)C)c2-3)[C@H](C)C1 [Example 19b, 18,21-difluoro-2-[(2S)-2-methyl-4-(prop-2-enoyl)piperazin-1-yl]-6-(propan-2-yl)-10,11,12,13-tetrahydro-1,19-ethenopyrido[3,4-e]pyrimido[6,1-c][2,4,10]benzotriazacyclotridecine-4,14-dione] | 4520 | > 30000 | 
7 | C=CC(=O)N1C[C@H](C)N(c2nc(=O)n3c4nc(c(Cl)cc24)-c2c(F)cccc2OCCCc2ccnc(C(C)C)c2-3)C[C@H]1C [Example 63, 20-chloro-2-[(2S,5R)-2,5-dimethyl-4-(prop-2-enoyl)piperazin-1-yl]-17-fluoro-6-(propan-2-yl)-11,12-dihydro-4H,10H-1,18-(ethanediylidene)pyrido[4,3-e]pyrimido[1,6-g][1,7,9] benzoxadiazacyclodo-decin-4-one] | 3.6 |  | 2
8 | C=CC(=O)N1CCN(c2nc(=O)n3c4nc(c(F)cc24)-c2cccc4cnn(c24)CCCOc2ccnc(C(C)C)c2-3)[C@@H](C)C1 [Example 3a, 22-fluoro-2-[(2S)-2-methyl-4-(prop-2-enoyl)piperazin-1-yl]-6-(propan-2-yl)-12,13-dihydro-4H,11H-1,20-ethenopyrido[4′,3′:2,3]pyrimido[1′,6′:4,5][1,4,6,10]oxatriazacyclotridecino[8,9,10-hi]indazol-4-one] | 4420 | 19100 | 
9 | C=CC(=O)N1CC(C)N(c2nc(=O)n3c4nc(c(F)cc24)-c2c(ccc(F)c2F)OCC(F)(F)CCc2ccnc(C(C)C)c2-3)CC1C [Example 54, (5aRa,18aRa)-2-[(2S,5R)-2,5-dimethyl-4-(prop-2-enoyl)piperazin-1-yl]-12,12,17,18,21-pentafluoro-6-(propan-2-yl)-10,11,12,13-tetrahydro-4H-1,19-(ethanediylidene)pyrido[4,3-f]pyrimido[1,6-h][1,8,10]benzoxadiazacyclotridecin-4-one] | 2.4 | 16 | 
10 | C=CC(=O)N1C[C@H](C)N(c2nc(=O)n3c4nc(c(F)cc24)-c2cccc(C(F)(F)F)c2OCCOc2ccnc(C(C)C)c2-3)C[C@H]1C [Example 116, 2-[(2S,5R)-2,5-dimethyl-4-(prop-2-enoyl)piperazin-1-yl]-20-fluoro-6-(propan-2-yl)-14-(trifluoromethyl)-11,12-dihydro-4H-1,18-ethenopyrido[4,3-e]pyrimido[1,6-g][1,4,7,9]benzodioxadiazacyclododecin-4-one] | 1100 | 2730 | 
11 | C=CC(=O)N1C[C@H](C)N(c2nc(=O)n3c4nc(c(F)cc24)-c2c(F)cccc2OCCOc2c(Cl)cnc(C(C)C)c2-3)C[C@H]1C [Example 70, 9-chloro-2-[(2S,5R)-2,5-dimethyl-4-(prop-2-enoyl)piperazin-1-yl]-17,20-difluoro-6-(propan-2-yl)-11,12-dihydro-4H-1,18-(ethanediylidene)pyrido[4,3-e]pyrimido[1,6-g][1,4,7,9]benzodioxadiazacyclododecin-4-one] | 1.8 | 19 | 
12 | C=CC(=O)N1C[C@H](C)N(c2nc(=O)n3c4nc(c(Cl)cc24)-c2cc(F)cc(F)c2OCCCc2ccnc(C(C)C)c2-3)C[C@H]1C [Example 82, 20-chloro-2-[(2S,5R)-2,5-dimethyl-4-(prop-2-enoyl)piperazin-1-yl]-14,16-difluoro-6-(propan-2-yl)-11,12-dihydro-4H,10H-1,18-ethenopyrido[4,3-e]pyrimido[1,6-g][1,7,9]benzoxadiazacyclododecin-4-one] | 5.9 |  | 36
13 | C=CC(=O)N1C[C@H](C)N(c2nc(=O)n3c4nc(c(F)cc24)-c2c(F)cccc2OCC(F)(F)COc2ccnc(C(C)C)c2-3)C[C@H]1C (single isomer, unassigned) [Example 13a] | 7.2 | 27 | 
14 | C=CC(=O)N1C[C@H](C)N(c2nc(=O)n3c4nc(c(F)cc24)-c2c(F)cccc2OC(C)CCc2ccnc(C(C)C)c2-3)C[C@H]1C (single isomer, unassigned) [Example 81] | 2.9 |  | 21
15 | C=CC(=O)N1C[C@H](C)N(c2nc(=O)n3c4nc(c(Cl)cc24)-c2c(F)cccc2OCC(F)(F)COc2ccnc(C(C)C)c2-3)C[C@H]1C [Example 59, 21-chloro-2-[(2S,5R)-2,5-dimethyl-4-(prop-2-enoyl)piperazin-1-yl]-12,12,18-trifluoro-6-(propan-2-yl)-12,13-dihydro-4H,11H-1,19-(ethanediylidene)pyrido[4,3-f]pyrimido[1,6-h][1,5,8,10] benzodioxadiazacyclo-tridecin-4-one] | 0.91 |  | 6.1
16 | C=CC(=O)N1C[C@H](C)N(c2nc(=O)n3c4nc(c(F)cc24)-c2c(Cl)cccc2OCCOc2ccnc(C(C)C)c2-3)C[C@H]1C [Example 83, 17-chloro-2-[(2S,5R)-2,5-dimethyl-4-(prop-2-enoyl)piperazin-1-yl]-20-fluoro-6-(propan-2-yl)-11,12-dihydro-4H-1,18-(ethanediylidene)pyrido[4,3-e]pyrimido[1,6-g][1,4,7,9]benzodioxadiazacyclododecin-4-one] | 11 |  | 8.9
17 | C=CC(=O)N1CC(C)N(c2nc(=O)n3c4nc(c(Cl)cc24)-c2c(F)ccc(F)c2OCCOc2ccnc(C(C)C)c2-3)CC1C [Example 50, (5aSa,17aRa)-20-chloro-2-[(2S,5R)-2,5-dimethyl-4-(prop-2-enoyl)piperazin-1-yl]-14,17-difluoro-6-(propan-2-yl)-11,12-dihydro-4H-1,18-(ethanediylidene)pyrido[4,3-e]pyrimido[1,6-g][1,4,7,9]benzodioxadiazacyclododecin-4-one] | 1.1 | 4.4 | 
18 | C=CC(=O)N1CC(C)N(c2nc(=O)n3c4nc(c(F)cc24)-c2c(F)ccc4cnn(c24)CCCCc2ccnc(C(C)C)c2-3)CC1C [Example 107, 2-[(2S,5R)-2,5-dimethyl-4-(prop-2-enoyl)piperazin-1-yl]-19,22-difluoro-6-(propan-2-yl)-10,11,12,13-tetrahydro-4H-1,20-(ethanediylidene)pyrido[4′,3′:12,13]pyrimido[1′,6′:1,2][1,3,7]triazacyclotridecino[5,6,7-hi]indazol-4-one] | 10 | 20 | 
19 | 17,20-difluoro-6-(propan-2-yl)-2-[4-(prop- 2-enoyl)-2-(2,2,2-trifluoroethyl)piperazin- 1-yl]-11,12-dihydro-4H,10H-1,18- (ethanediylidene)pyrido[4,3- e]pyrimido[1,6-g][1,7,9] benzoxadiazacyclododecin-4-one [Example 101] | 29 | 137 | 
20 | C=CC(=O)N1C[C@H](C)N(c2nc(=O)n3c4nc(c(F)cc24)-c2c(Cl)cccc2OCCCc2ccnc(C(C)C)c2-3)C[C@H]1C [Example 76, 17-chloro-2-[(2S,5R)-2,5-dimethyl-4-(prop-2-enoyl)piperazin-1-yl]-20-fluoro-6-(propan-2-yl)-11,12-dihydro-4H,10H-1,18-ethenopyrido[4,3-e]pyrimido[1,6-g][1,7,9]benzoxadiazacyclododecin-4-one] | 2.3 |  | 3.6
